Patent US8426429B2, “2-amino-quinazoline derivatives useful as inhibitors of β-secretase (BACE)” (Jansssen Pharmaceutica N.V., priority 2004, dated 2013)
Values joined by “and” are separate entries in the source; they are usually repeats but may differ in a detail not shown here. Equal entries are not always repeated. Where two headings read alike, the source gives them in different places.

Legend:
Assay type in all cases: biochemical
β-secretase (BACE) [1] = target: T1, β-secretase (BACE) (Homo sapiens, UniProt P56817); assay: BACE % Inhibition Assay ((Aedens)-[…]-(Dabcyl K-amide) substrate); settings: % error ±10%
T1 construct: purchased Panvera
Procedure: (§1) The substrate stock solution was prepared in DMSO as a 10 mg/mL solution. The substrate working solution was prepared by diluting the 10 mg/mL stock solution with substrate assay buffer to a final concentration of […]. The β-secretase (BACE) working solution was prepared by diluting a 0.83 mg/mL BACE stock solution with enzyme assay buffer to a final concentration of 4 μg/mL.
Test compounds were dissolved in DMSO to 10 mM.
The screening procedure for this assay was as follows: 15 μL of BACE working solution was pipetted into each well of a 96-well plate. To each well was then pipetted 2 μL of test compound at the selected concentration. Test compound and BACE were then mixed with a pipettor and incubated for 20 min at room temperature. To each well was then added 10 μL of the substrate working solution. The plates were then incubated for 1 hour at room temperature.
The procedure for the blank was as follows. 15 μL of assay buffer was pipetted into each well to be used as a blank control. To each well was then added 2 μL of vehicle and 10 μL of substrate working solution. The plates were then incubated for 1 hour at room temperature.
The procedure for the positive control was as follows: 15 μl of BACE working solution was pipetted into each well to be used as a positive control. To each well was then pipetted 2 μL of vehicle. Vehicle and BACE were then mixed with a pipettor and incubated for 20 min at room temperature. To each well was then added 10 μL of the substrate working solution. The plates were the incubated for 1 hour at room temperature.
For test compounds, % inhibition was determined at each concentration as follows: […]

β-secretase (BACE) [2] = target: T1, β-secretase (BACE); assay: BACE FS1 % Inhibition Assay; settings: for inhibition at 0.3 µM / inhibition at 1 µM / inhibition at 3 µM: read-out: % Inhibition (FS)
Method in brief: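 Percent inhibition per compound concentration was referenced to vehicle-treated enzyme and no-enzyme wells. Enzyme at a 4 μg/mL working stock plus compound was mixed for 20 min at room temperature before the FS1 substrate (300 μg/mL working stock) was added for a 1 h room-temperature reaction.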

β-secretase (BACE) [3] = target: T1, β-secretase (BACE); assay: BACE Assay-1 (MCA-substrate, IC50); settings: procedure of Example 158
Procedure: The following standards are reagents were used in this assay: Sodium Citrate trisodium salt dihydrate (Sigma), Citric Acid monohydrate (Merck), PEG8000 (Sigma), MCA-substrate (Bachem), β-secretase (BACE) (Panvera), 96-well plate zwart (Costar (Elscolab)), StatVal (Bachem).
The following standard assay buffer solution was prepared and used in this assay: 0.05 M, pH 5.0 mixture of sodium citrate trisodium salt dihydrate (9.56 g), citric acid monohydrate (3.68 g) and PEG8000 (0.50 g).
The MCA-substrate stock solution was prepared by mixing 10 mg MCA-substrate with 5 mL DMSO for a final solution concentration of 2.0 mg/mL. The substrate work solution was prepared by mixing 0.1 mL substrate in 1.90 mL assay buffer for a final concentration of 0.05 mM. The β-secretase (BACE) work solution was prepared by mixing 8 μL BACE in 2 mL assay buffer for a final concentration of 10 µg/mL.
The screen procedure for this assay was as follows. 60 μL of assay buffer was pippeted into each well of a 96-well plate. To each well was then pipetted 1 μL of test compound at the selected concentration. To each well was then added 20 μL of the β-secretase work solution and […] of the MCA-substrate stock solution.
The procedure for the blank was as follows. 80 μL of assay buffer was pipetted into each well to be used as a blank control. To each well was then added 1 μL of DMSO and 20 μL of MCA-substrate solution in each well.
The procedure for the positive control was as follows. 60 μL of assay buffer was pipetted into each well to be used as a positive control. To each well was then added 1 μL of DMSO, 20 μL of BACE work solution and 20 μL of MCA-substrate stock solution.
For test compounds, measured at multiple concentrations, the measured T0 and T60 values were used to calculate an IC50 value using Graphpad Software (or PIR).

β-secretase (BACE) [4] = target: T1, β-secretase (BACE); assay: BACE Assay-2 (FS1 substrate, IC50 and Ki); settings: procedure of Example 159, FS1 substrate
Procedure: as §1, with “The FS1-substrate” for “The substrate”
Test compounds were dissolved in DMSO at 10 mM.
The procedure for this assay was as follows: 15 μL of BACE working solution was pipetted into each well of a 96-well plate. To each well was then pipetted 2 μL of test compound at the selected concentration. Test compound and BACE were then mixed with a pipettor and incubated for 20 min at room temperature. To each well was then added 10 μL of the FS1 substrate working solution.
The procedure for the positive control was as follows:15 μL of BACE working solution was pipetted into each well to be used as a positive control. To each well was then pipetted 2 μL of vehicle. Vehicle and BACE were then mixed with a pipettor and incubated for 20 min at room temperature. To each well was then added 10 μL of the FS1 substrate working solution.
For test compounds, measured at multiple concentrations, the measured T0 and T60 values were used to calculate an IC50 value using Graphpad Software (or PIR). For test compounds, Ki inhibition was determined as follows: For each compound concentration and positive control, rate of cleavage of substrate (Vi, where i=compound concentration in μM) was determined as Δ Fluorescence/Δ time (min). Cleavage rates (Vi) were plotted as a function of inhibitor concentration in μM [I]. The Ki was then determined by fitting the following equation to the graph of [I] vs Vi Y=aVmax/(50+24*(1+X/Ki)),

T1 sequence (P56817 46-501): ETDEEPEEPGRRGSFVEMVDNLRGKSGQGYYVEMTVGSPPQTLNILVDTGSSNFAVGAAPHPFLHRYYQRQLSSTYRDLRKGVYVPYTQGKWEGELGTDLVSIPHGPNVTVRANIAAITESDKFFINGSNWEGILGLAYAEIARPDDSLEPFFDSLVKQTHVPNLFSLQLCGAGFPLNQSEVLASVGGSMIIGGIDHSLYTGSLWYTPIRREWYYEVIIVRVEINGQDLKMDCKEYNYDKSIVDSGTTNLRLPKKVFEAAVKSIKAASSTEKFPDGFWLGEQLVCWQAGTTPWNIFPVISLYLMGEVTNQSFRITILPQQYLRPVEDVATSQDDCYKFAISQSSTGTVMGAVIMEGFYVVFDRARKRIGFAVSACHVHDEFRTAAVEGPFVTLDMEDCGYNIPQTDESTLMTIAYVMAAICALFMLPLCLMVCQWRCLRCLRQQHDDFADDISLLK

## CCCC(CCCC(=O)N(CC)C1CCCCC1)N1Cc2cc(Oc3ccccc3)ccc2N=C1N (stereo not drawn) [Compound 105]
β-secretase (BACE) [1]; 3 μM compound
  % Inhibition: <30%
β-secretase (BACE) [1]; 10 μM compound
  % Inhibition: <30%
β-secretase (BACE) [2]; 0.3 μM test compound
  % Inhibition (FS): <30%
β-secretase (BACE) [2]; 1 μM test compound
  % Inhibition (FS): <30%
β-secretase (BACE) [2]; 3 μM test compound
  % Inhibition (FS): <30%

## CN(C(=O)CCCN1Cc2cc(C(=O)c3ccccc3)ccc2N=C1N)C1CCCCC1 [Compound 10]
β-secretase (BACE) [3]
  IC50: 3.7 µM

## CC(C)N1CCC(N(C)C(=O)CC[C@@H](C2CCCCC2)N2Cc3cc(Oc4ccccc4)ccc3N=C2N)CC1 [Compound 728]
β-secretase (BACE) [2]; 0.3 μM compound, FS1 substrate
  inhibition at 0.3 µM: 43%
β-secretase (BACE) [2]; 1 μM compound, FS1 substrate
  inhibition at 1 µM: 58%
β-secretase (BACE) [2]; 3 μM compound, FS1 substrate
  inhibition at 3 µM: 97%
β-secretase (BACE) [4]
  Ki: 0.38 µM

## CCCN1Cc2cc(Oc3cccc(CNS(=O)(=O)c4ccccc4)c3)ccc2N=C1N [Compound 225]
β-secretase (BACE) [3]
  IC50: 2.9 µM

## NC1=Nc2ccc(Oc3cccc(NS(=O)(=O)c4ccccc4)c3)cc2CN1CCCCC(=O)N(C1CCCCC1)C1CCCCC1 [Compound 113]
β-secretase (BACE) [3]
  IC50: 0.99 µM

## CCCN1Cc2cc(Oc3cccc(CNCc4c(C)cc(C)cc4C)c3)ccc2N=C1N [Compound 344]
β-secretase (BACE) [3]
  IC50: 0.058 µM

## CC(C)C(CNC(=O)C12CC3CC(CC(C3)C1)C2)N1Cc2cc(Oc3ccccc3)ccc2N=C1N (stereo not drawn) [Compound 562]
β-secretase (BACE) [2]; 0.3 μM test compound
  inhibition at 0.3 µM: 106%
β-secretase (BACE) [2]; 1 μM test compound
  inhibition at 1 µM: 118%
β-secretase (BACE) [2]; 3 μM test compound
  inhibition at 3 µM: 128%
β-secretase (BACE) [4]
  Ki: 0.026 µM

## CN(CCCCC(=O)O)C(=O)CC[C@@H](C1CCCCC1)N1Cc2cc(Oc3ccccc3)ccc2N=C1N [Compound 752]
β-secretase (BACE) [2]; 0.3 μM compound, FS1 substrate
  inhibition at 0.3 µM: 45%
β-secretase (BACE) [2]; 1 μM compound, FS1 substrate
  inhibition at 1 µM: 81%
β-secretase (BACE) [2]; 3 μM compound, FS1 substrate
  inhibition at 3 µM: 109%
β-secretase (BACE) [4]
  Ki: 0.221 µM

## NC1=Nc2ccc(Oc3ccccc3)cc2CN1[C@H](CNC(=O)C1CCCCC1)C1CCCCC1 [Compound 484]
β-secretase (BACE) [2]; 0.3 μM test compound
  inhibition at 0.3 µM: < 30%
β-secretase (BACE) [2]; 1 μM test compound
  inhibition at 1 µM: < 30%
β-secretase (BACE) [2]; 3 μM test compound
  inhibition at 3 µM: 62%
β-secretase (BACE) [4]
  Ki: 0.74 µM
β-secretase (BACE) [3]
  IC50: 1.1 µM

## COc1ccccc1-c1ccc2c(c1)CN([C@@H](CCC(=O)N(C)C1CCCCC1)C1CCCCC1)C(N)=N2 [Compound 506]
β-secretase (BACE) [2]; 0.3 μM test compound
  inhibition at 0.3 µM: 106%
β-secretase (BACE) [2]; 1 μM test compound
  inhibition at 1 µM: 115%
β-secretase (BACE) [2]; 3 μM test compound
  inhibition at 3 µM: 128%
β-secretase (BACE) [4]
  Ki: 0.018 µM and 0.0075 µM
β-secretase (BACE) [3]
  IC50: 0.03 µM

## CN(C(=O)CCC(C1CCCCC1)N1Cc2cc(Oc3ccccc3)ccc2N=C1N)C(COCc1ccccc1)C(=O)O (stereo not drawn) [Compound 781]
β-secretase (BACE) [2]; 0.3 μM compound, FS1 substrate
  inhibition at 0.3 µM: 106%
β-secretase (BACE) [2]; 1 μM compound, FS1 substrate
  inhibition at 1 µM: 109%
β-secretase (BACE) [2]; 3 μM compound, FS1 substrate
  inhibition at 3 µM: 121%
β-secretase (BACE) [4]
  Ki: 0.038 µM

## CN(C(=O)CC[C@@H](C1CCCCC1)N1Cc2cc(Oc3ccccc3)ccc2N=C1N)C1CCC2(CC1)OCCO2 [Compound 710]
β-secretase (BACE) [2]; 0.3 μM compound, FS1 substrate
  inhibition at 0.3 µM: < 30%
β-secretase (BACE) [2]; 1 μM compound, FS1 substrate
  inhibition at 1 µM: 68%
β-secretase (BACE) [2]; 3 μM compound, FS1 substrate
  inhibition at 3 µM: 126%
β-secretase (BACE) [4]
  Ki: 0.3 µM

## CCCN1Cc2cc(Oc3cccc(CNC(=O)c4c(C)cc(C)cc4C)c3)ccc2N=C1N [Compound 533]
β-secretase (BACE) [3]
  IC50: 0.17 µM

## CN(C(=O)CC[C@@H](C1CCCCC1)N1Cc2cc(Oc3ccccc3)ccc2N=C1N)C1CCC(=O)CC1 [Compound 711]
β-secretase (BACE) [2]; 0.3 μM compound, FS1 substrate
  inhibition at 0.3 µM: < 30%
β-secretase (BACE) [2]; 1 μM compound, FS1 substrate
  inhibition at 1 µM: 43%
β-secretase (BACE) [2]; 3 μM compound, FS1 substrate
  inhibition at 3 µM: 113%
β-secretase (BACE) [4]
  Ki: 0.45 µM

## CCCN1Cc2cc(Oc3cccc(CNCc4c(OC)cccc4OC)c3)ccc2N=C1N [Compound 340]
β-secretase (BACE) [3]
  IC50: 2 µM
